Data published in patent publication US9062041B2 (Bayer Intellectual Property GmbH, priority 2011, dated 2015).

Assays:
Format in all cases: cell-based
[1] = target: T1, human PGD receptor (Homo sapiens, UniProt Q13258); experiment: cAMP antagonism test on the human prostaglandin D receptor (HTRF cAMP detection); conditions: selectivity towards hDP, IC50 measured by cAMP antagonism test
T1 sequence (Q13258 1-359): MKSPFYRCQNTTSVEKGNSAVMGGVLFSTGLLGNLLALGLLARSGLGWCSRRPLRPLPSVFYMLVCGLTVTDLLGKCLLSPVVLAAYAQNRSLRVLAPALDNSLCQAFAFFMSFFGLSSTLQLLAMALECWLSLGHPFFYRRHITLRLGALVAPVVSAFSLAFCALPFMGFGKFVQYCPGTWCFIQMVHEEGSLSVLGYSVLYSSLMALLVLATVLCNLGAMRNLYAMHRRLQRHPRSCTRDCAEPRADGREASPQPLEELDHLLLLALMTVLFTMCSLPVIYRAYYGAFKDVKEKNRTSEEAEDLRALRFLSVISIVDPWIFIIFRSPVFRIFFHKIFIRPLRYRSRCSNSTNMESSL
In short: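 Cells pre-mixed with cAMP-d2 were preincubated with compound (0.8 nM–16.5 μM) for 20 min at RT, then stimulated with 3× PGD2 solution (6 nM, in PBS-IBMX) for 30 min at RT. After lysis (20 min), HTRF read at 665/620 nm; antagonism seen as rise in FRET ratio.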

[2] = target: EP2 subtype of the human PGE2 receptor (Homo sapiens, UniProt P43116); experiment: cAMP antagonism test on the human EP2 receptor (HTRF cAMP detection); conditions: hEP2 receptor, read-out: Antagonism hEP2 IC50
Sequence of EP2 subtype of the human PGE2 receptor (P43116 whole entry): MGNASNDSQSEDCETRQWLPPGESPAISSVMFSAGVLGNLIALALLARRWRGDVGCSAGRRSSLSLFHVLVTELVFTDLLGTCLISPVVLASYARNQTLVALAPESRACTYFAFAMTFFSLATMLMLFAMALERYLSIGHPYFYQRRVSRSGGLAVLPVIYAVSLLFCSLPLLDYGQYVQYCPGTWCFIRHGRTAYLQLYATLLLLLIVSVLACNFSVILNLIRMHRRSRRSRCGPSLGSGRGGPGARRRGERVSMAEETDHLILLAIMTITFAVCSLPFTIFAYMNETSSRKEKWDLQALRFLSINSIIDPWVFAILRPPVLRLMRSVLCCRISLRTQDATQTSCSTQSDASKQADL
In short: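 Cells expressing human EP2 preincubated 20 min at RT with compound (0.8 nM–16.5 μM), then stimulated 60 min with PGE2 (3× solution 1.5 nM) in PBS-IBMX. After 20 min lysis, cAMP measured by competitive HTRF with cAMP-d2 and Eu cryptate anti-cAMP antibody (665/620 nm ratio).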

[3] = target: EP4 subtype of the human PGE2 receptor (Homo sapiens, UniProt P35408); experiment: cAMP antagonism test on the human EP4 receptor (HTRF cAMP detection); conditions: selectivity towards hEP4, IC50 measured by cAMP antagonism test
Sequence of EP4 subtype of the human PGE2 receptor (P35408 whole entry): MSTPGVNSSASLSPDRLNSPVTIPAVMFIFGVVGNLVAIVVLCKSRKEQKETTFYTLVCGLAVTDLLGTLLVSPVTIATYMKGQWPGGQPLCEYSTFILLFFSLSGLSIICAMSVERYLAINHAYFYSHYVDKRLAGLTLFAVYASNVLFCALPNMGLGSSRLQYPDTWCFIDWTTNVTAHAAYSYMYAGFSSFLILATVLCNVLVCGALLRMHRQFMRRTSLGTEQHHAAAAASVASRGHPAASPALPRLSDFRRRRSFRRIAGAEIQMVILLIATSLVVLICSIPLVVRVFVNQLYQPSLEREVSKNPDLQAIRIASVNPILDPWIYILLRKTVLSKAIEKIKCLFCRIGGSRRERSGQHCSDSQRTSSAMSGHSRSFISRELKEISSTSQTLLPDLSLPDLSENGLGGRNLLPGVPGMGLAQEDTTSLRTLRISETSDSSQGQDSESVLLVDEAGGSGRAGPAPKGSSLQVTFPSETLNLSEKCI
In short: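 Cells expressing human EP4 preincubated 20 min at RT with compound (0.8 nM–16.5 μM), then stimulated with PGE2 (0.3 nM in 3× solution, with IBMX) 60 min at RT. After lysis, cAMP measured by HTRF competition (665/620 nm ratio); antagonism seen as rise in FRET signal.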

Row | Structure (SMILES) | Selectivity hEP2/hDP [1] | IC50 [2] [nM] | Selectivity hEP2/hEP4 [3]
1 | COCCNC(=O)c1ccc2nn(CC3CCN(C(=O)c4ccc(N5CCOCC5)cc4)CC3)cc2c1C [Example 4, N-(2-methoxyethyl)-4-methyl-2-{[1-(4-morpholinobenzoyl)piperidin-4-yl]methyl}-2H-indazol-5-carboxamide] | xxx (xxx > 100) | 68.1 | xxx (xxx > 100)
2 | Cc1c(C(=O)NCCOCC2CC2)ccc2nn(CC3CN(C(=O)c4ccc(Oc5ccc(F)cc5)cc4)C3)cc12 [Example 150, N-[2-(cyclopropylmethoxy)ethyl]-2-({1-[4-(4-fluorophenoxy)benzoyl]azetidin-3-yl}methyl)-4-methyl-2H-indazol-5-carboxamide] | xxx (xxx > 100) | 12.8 | xxx (xxx > 100)
3 | O=C(NCCOCC1CC1)c1ccc2nn(CC3CCN(C(=O)c4ccc(Oc5ccc(F)cc5)cc4)CC3)cc2c1OC(F)F [Example 230, N-[2-(cyclopropylmethoxy)ethyl]-4-(difluoromethoxy)-2-({1-[4-(4-fluoro-phenoxy)benzoyl]piperidin-4-yl}methyl)-2H-indazol-5-carboxamide] | xxx (xxx > 100) | 13.7 | xxx (xxx > 100)
4 | Cc1c(C(=O)NCC#N)ccc2nn(CC3CCN(C(=O)c4ccc(Oc5ccc(C(F)(F)F)cc5)cc4)CC3)cc12 [Example 247, N-(cyanomethyl)-4-methyl-2-[(1-{4-[4-(trifluoromethyl)phenoxy]benzoyl}piperidin-4-yl)methyl]-2H-indazol-5-carboxamide] | xxx (xxx > 100) | 12.6 | xxx (xxx > 100)
5 | COCCNC(=O)c1cc2cn(CC3CN(C(=O)c4ccc(Cl)cc4F)C3)nc2cc1C [Example 183, 2-{[1-(4-chloro-2-fluorobenzoyl)azetidin-3-yl]methyl}-N-(2-methoxyethyl)-6-methyl-2H-indazol-5-carboxamide] | xxx (xxx > 100) | 46.6 | xxx (xxx > 100)
6 | CCOc1c(C(=O)NCCOC)ccc2nn(CC3CCN(C(=O)c4ccc(S(F)(F)(F)(F)F)cc4)CC3)cc12 [Example 275, 4-ethoxy-N-(2-methoxyethyl)-2-({1-[4-(pentafluoro-λ^6-sulphanyl)benzoyl]-piperidin-4-yl}methyl)-2H-indazol-5-carboxamide] | xxx (xxx > 100) | 34.5 | xxx (xxx > 100)
7 | COCCNC(=O)c1ccc2nn(CC3CCN(C(=O)c4ccc(-c5cccnc5)c(C)c4)CC3)cc2c1C [Example 392, N-(2-methoxyethyl)-4-methyl-2-({1-[3-methyl-4-(3-pyridyl)benzoyl]piperidin-4-yl}methyl)-2H-indazol-5-carboxamide] | xxx (xxx > 100) | 21.8 | xxx (xxx > 100)
8 | Cc1c(C(=O)NCCOC(F)(F)F)ccc2nn(CC3CCN(C(=O)c4ccc(Oc5ccc(C(F)(F)F)cc5)cc4)CC3)cc12 [Example 110, 4-methyl-N-[2-(trifluoromethoxy)ethyl]-2-[(1-{4-[4-(trifluoro-methyl)phenoxy]-benzoyl}piperidin-4-yl)-methyl]-2H-indazol-5-carboxamide] | xxx (xxx > 100) | 4.4 | xxx (xxx > 100)
9 | COCCNC(=O)c1ccc2nn(CC3CCN(C(=O)c4ccc(-c5ccccc5F)cc4)CC3)cc2c1C [Example 47, 2-({1-[(2′-fluoro-biphenyl-4-yl)-carbonyl]piperidin-4-yl}methyl)-N-(2-methoxyethyl)-4-methyl-2H-indazol-5-carboxamide] | xxx (xxx > 100) | 5.61 | xxx (xxx > 100)
10 | COCCNC(=O)c1ccc2nn(CC3CCN(C(=O)c4nc5ccccc5n4C)CC3)cc2c1C [Example 338, N-(2-methoxyethyl)-4-methyl-2-({1-[(1-methyl-1H-benzimidazol-2-yl)carbonyl]-piperidin-4-yl}methyl)-2H-indazol-5-carboxamide] | xxx (xxx > 100) | 28 | xxx (xxx > 100)
11 | COC(C)CNC(=O)c1ccc2nn(CC3CN(C(=O)c4ccc(Cl)cc4)C3)cc2c1C (racemic) [Example 138, (+/−)-2-{[1-(4-chlorobenzoyl)azetidin-3-yl]methyl}-N-(2-methoxypropyl)-4-methyl-2H-indazol-5-carboxamide] | xxx (xxx > 100) | 160 | xxx (xxx > 100)
12 | COCCNC(=O)c1ccc2nn(CC3CCN(C(=O)c4ccc(Oc5ccc(C#N)cn5)cc4)CC3)cc2c1C [Example 356, 2-[(1-{4-[(5-cyanopyridin-2-yl)oxy]benzoyl}piperidin-4-yl)methyl]-N-(2-methoxyethyl)-4-methyl-2H-indazol-5-carboxamide] | xxx (xxx > 100) | 63.6 | xxx (xxx > 100)
13 | Cc1c(C(=O)NCCOC(C)(C)C)ccc2nn(CC3CN(C(=O)c4ccc(Cl)cc4)C3)cc12 [Example 153, N-(2-tert-butoxyethyl)-2-{[1-(4-chlorobenzoyl)azetidin-3-yl]methyl}-4-methyl-2H-indazol-5-carboxamide] | xxx (xxx > 100) | 60.8 | xxx (xxx > 100)
14 | COCCNC(=O)c1ccc2nn(CC3CCN(C(=O)c4ccc(-c5ccccc5C)cc4)CC3)cc2c1C [Example 50, N-(2-methoxyethyl)-4-methyl-2-({1-[(2′-methylbiphenyl-4-yl)carbonyl]piperidin-4-yl}methyl)-2H-indazol-5-carboxamide] | xxx (xxx > 100) | 3.18 | xxx (xxx > 100)
15 | COCCNC(=O)c1cc2cn(CC3CCN(C(=O)c4ccc(S(F)(F)(F)(F)F)cc4)CC3)nc2cc1C [Example 210, N-(2-methoxyethyl)-6-methyl-2-({1-[4-(pentafluoro-λ^6-sulphanyl)benzoyl]-piperidin-4-yl}methyl)-2H-indazol-5-carboxamide] | xxx (xxx > 100) | 19.5 | xxx (xxx > 100)
16 | COCCNC(=O)c1ccc2nn(CC3CCN(C(=O)c4ccc(-c5cccc(C(F)(F)F)c5)cc4F)CC3)cc2c1C [Example 45, 2-[(1-{[3-fluoro-3′-(trifluoromethyl)-biphenyl-4-yl]-carbonyl}-piperidin-4-yl)-methyl]-N-(2-methoxyethyl)-4-methyl-2H-indazol-5-carboxamide] | xxx (xxx > 100) | 5.51 | xxx (xxx > 100)
17 | Cc1cc2nn(CC3CN(C(=O)c4ccc(Cl)cc4)C3)cc2cc1C(=O)NCCSC(F)(F)F [Example 189, 2-{[1-(4-chlorobenzoyl)azetidin-3-yl]methyl}-6-methyl-N-{2-[(trifluoromethyl)sulphanyl]ethyl}-2H-indazol-5-carboxamide] | xxx (xxx > 100) | 33.6 | xxx (xxx > 100)
18 | Cc1cc2nn(CC3CN(C(=O)c4ccc(Oc5ccc(C(F)(F)F)cc5)cc4)C3)cc2cc1C(=O)NCC(F)(F)F [Example 201, 6-methyl-N-(2,2,2-trifluoroethyl)-2-[(1-{4-[4-(trifluoromethyl)phenoxy]benzoyl}azetidin-3-yl)methyl]-2H-indazol-5-carboxamide] | xxx (xxx > 100) | 24.9 | xxx (xxx > 100)
19 | COC(C)CNC(=O)c1ccc2nn(CC3CN(C(=O)c4ccc(Cl)cc4)C3)cc2c1C (single isomer, unassigned) [Example 139, (R or S)-2-{[1-(4-chlorobenzoyl)azetidin-3-yl]methyl}-N-(2-methoxypropyl)-4-methyl-2H-indazol-5-carboxamide] | xx (xx: 10-100) | 419 | xx (xx: 10-100)
